# Laboratory results taken from article PMC10747822 (Pharmaceutics, 2023).
# Where a SMILES comes first, the peptide text is derived from it. [ ]: non-standard residue; d: D form. The star is where a group is joined. NH(4-amidinobenzyl) = N=C(N)c1ccc(CN*)cc1
# Experiments:
# [1] = Metabolite identification / degradation in mouse plasma by HRMS; assay type: in vitro ADME; settings: minimally diluted mouse plasma
# Method: Metabolite identification experiments were performed in minimally diluted mouse plasma at a Ac-[D-Leu]LLLRVK-amba concentration of 20 µg/mL. Minimally diluted plasma samples were incubated at room temperature and analyzed after 0, 0.5, 4, and 16 h. Samples were depleted from proteins via precipitation with a 2-fold excess of ACN + 0.1% FA and diluted with one equivalent of water + 0.1% FA for direct infusion onto the mass spectrometer.
# High-resolution mass spectrometric (HRMS) determinations for the investigation of Ac-[D-Leu]LLLRVK-amba metabolism/degradation in plasma were performed on a Xevo G2-XS QTof (Waters, Milford, MA, USA) equipped with a heated Z-spray ESI source. Measurements were performed via direct infusion using the integrated infusion pump with positive ion sensitivity mode.
# [2] = Bench-top stability in mouse plasma; assay type: in vitro ADME; settings: mouse plasma anti-coagulated with Li-heparin, minimally diluted, room temperature
# Method: To investigate peptide stability, minimally diluted plasma or blood samples were generated through the addition of 10 µL of a spiking solution (50,000 ng/mL) to 490 µL of the pertinent biological matrix, resulting in a sample concentration of 1000 ng/mL. Samples (withdrawal of duplicates of 20 µL) were measured immediately after preparation and again after 1 and 2 h. Stability was evaluated via the comparison of peak area ratios of analyte and IS.
# To determine which biological matrix is best suited for pharmacokinetic experiments in mice, we investigated the bench-top stability of Ac-[D-Leu]LLLRVK-amba in plasma and fresh whole blood at room temperature over a 2 h period (Figure 3). In plasma, anti-coagulated with Li-heparin, Ac-[D-Leu]LLLRVK-amba was very rapidly degraded.
# [3] = mice; cited from earlier work
# Method: The pharmacokinetics of Ac-[D-Leu]LLLRVK-amba was already determined after intravenous bolus injection. With a half-life of only 9 min, this route of administration only produced a short period of potentially effective concentrations. […] Therefore, we aimed at flattening the pharmacokinetic profile with alternate routes of administr ...
# [4] = 37 °C, 500 µg/mL; cited from earlier work
# Method: However, these were conducted at a substantially higher concentration of Ac-[D-Leu]LLLRVK-amba of 500 µg/mL compared to the 1 µg/mL investigated here. […] Such lower stability in plasma compared to whole blood was already reported for several peptides.
# [5] = Autosampler (extract) stability; assay type: physicochemical; settings: 24 h in autosampler
# Method: Blood samples for calibration and QC purposes were generated through the addition of 25 µL of the pertinent spike solution to 20 µL of blank blood and the subsequent addition of 25 µL of IS solution. Calibration samples were produced at 10, 30, 100, 300, 1000, 3000, and 10,000 ng/mL, and QC samples were produced at concentrations of 10, 30, 3750, and 7500 ng/mL. For study sample processing, 20 µL of each sample was added to 25 µL of IS solution, and 25 µL of ACN/H2O 1/1 + 0.1% FA was added for volume compensation to ensure that sample preparation matches that of study blood samples. For stability reasons, each sample was immediately depleted from proteins by adding 150 µL ACN including 0.1% FA. Samples were processed individually and kept frozen until processing. Subsequently, samples were centrifuged at 13,200× g for 5 min. From the extracts, 10 µL was transferred to 400 µL of ACN/H2O 1/19 + 0.1% FA in wells of a 96-well collection plate (Waters, Milford, MA, USA).
# The instrumental setup comprised an Acquity UPLC® Classic System coupled to a Xevo TQ-S triple-stage quadrupole mass spectrometer, which was equipped with a Z-spray heated electrospray ionization (ESI) source (Waters, Milford, MA, USA). […] This yielded an optimal cone voltage of 30 V and collision energy of 10 V. The monitored mass transitions were m/z 343.3 → 436.9 for Ac-[D-Leu]LLLRVK-amba and m/z 345.6 → 440.4 for the IS.
# The applicable recommendations for bioanalytical method validation of the FDA and EMA were applied to the validation of the assay. Accuracy was calculated as the percentage of the ratio of the mean of the determined concentrations and the nominal concentration. The acceptance limit is 100 ± 15%, with the exception of the LLOQ where it is 100 ± 20% Q. The assay precision was calculated as the coefficient of variation of the determined sample concentrations. […] Recovery of the whole blood extraction process was calculated from peak areas of QC samples divided by the peak areas obtained from blank blood spiked with the respective amount after processing. […]
structure (smiles),measurement,setting,value
CC(=O)N[C@H](CC(C)C)C(=O)N[C@@H](CC(C)C)C(=O)N[C@@H](CC(C)C)C(=O)N[C@@H](CC(C)C)C(=O)N[C@@H](CCCNC(=N)N)C(=O)N[C@H](C(=O)N[C@@H](CCCCN)C(=O)NCc1ccc(C(=N)N)cc1)C(C)C [Ac-[D-Leu]LLLRVK-amba] (Ac-[dL]LLLRVK-{NH(4-amidinobenzyl)}),metabolites / degradation products in mouse plasma,"[1]; 20 µg/mL, room temperature over 16 h, HRMS, neither peptide bond hydrolysis nor oxidation products",no traces of metabolites were observed
same,stability in mouse plasma at 20 µg/mL,"[1]; room temperature, 0, 0.5, 4 and 16 h, HRMS direct infusion (m/z 50-1200)",several hours
same,half-life at 1000 ng/mL,"[2]; CD-1, 1 µg/mL (1000 ng/mL), sampled at 0, 1 and 2 h, duplicates of 20 µL, UPLC-MS/MS peak area ratio analyte/IS, read-out: calculated half-life (t1/2) in plasma (converted)",28.8 min
same,calculated half-life (t1/2) in plasma,"[2]; 1 µg/mL, 0, 1 and 2 h, duplicates, UPLC-MS/MS, same value given in min",29 min
same,half-life after intravenous bolus injection (previous study),[3],9 min
same,half-life in Na-heparin mouse plasma,[4],1080 min
same,"autosampler (extract) stability, Accuracy [%]",[5]; QC A,98.3%
same,"autosampler (extract) stability, Accuracy [%]",[5]; QC B,99.7%
same,"autosampler (extract) stability, Accuracy [%]",[5]; QC C,97.5%
